In patent US10849867B2, “Methods and compositions for treating conditions associated with an abnormal inflammatory response” (First Wave Bio, Inc., priority 2015, dated 2020):

What was measured:
[1] = Pharmacokinetics following a single rectal administration to NZW rabbits (Example 11); format: in vivo, New Zealand White KBL Rabbit; conditions: Treatment B 7.5, NZW rabbits; for concentration at 2 h / concentration at 4 h / concentration at 8 h / concentration at 24 h: male, New Zealand White KBL, rabbit, plasma, other: rectal, 7.5 mg, Niclosamide Plasma Concentrations
Description: Following dosing, blood samples and rectal mucosa was obtained at indicated time points.

TNBS-induced colitis = assay: TNBS colitis in mice, niclosamide suspension administered rectally as enema (Example 9); format: in vivo, male Balb/c mice
Description: Model: Intra-rectal administration of trinitrobenzene sulfonic acid (TNBS) to mice results in colitis. TNBS elicits cell-mediated immune responses and induces transmural inflammation in the gut with morphological and histopathological features similar to those of human inflammatory bowel disease. TNBS induces diffuse colonic inflammation, characterized by increased leukocyte infiltration, edema, and ulceration. It is very well reported that administration of TNBS is associated with predominant activation of Th1-mediated immune response manifested by increased cytokines such as interferon-γ (IFN-γ), tumor necrosis factor-α (TNF-α) and interleukin-17A (IL-17A) as well as dense infiltration of CD4+ T cells. Disease activity in the TNBS model can be determined by loss of body weight, histopathological evaluation of the colon showing evidence of inflammatory damage and evidence of pro-inflammatory cytokines detected in colon tissue. Animals and Treatments: Studies of TNBS colitis were performed in 8- to 12-week-old male Balb/c mice (Jackson Laboratories, stock number 000651). […] Weight changes were recorded daily and tissues were collected for histologic study and RNA analysis at the end of the study. […] Gene expression was calculated using the ΔΔCt algorithm.

[2] = system: lamina propria T cell (CD3+); assay: Cell death in lamina propria T cell from active IBD, 7-AAD staining (FIG. 1); format: cell-based, human; conditions: 10 μM for 16 hours, LPMC from IBD subjects, versus DMSO
Procedure: Cell death in lamina propria T cell (CD3+) was determined by measuring 7-AAD staining by flow cytometry. FIG. 1. […] Cell death in lamina propria T cell (CD3+) was determined by measuring 7-AAD staining by flow cytometry.

[3] = Colon concentration in mice compared with uncoupling concentration (Example 6); format: in vivo
Procedure: Model. Results from Examples 2 and 5 are used together. […] This concentration is directly compared to the dose-response data to determine if efficacious exposure is sufficient to induce mitochondrial uncoupling in colon.
Pharmacokinetic study design.
Calculation of target coverage. The average area under the colon concentration versus time curve (AUC) and the peak concentration is calculated and is plotted and is graphed.

LPMC T cells = assay: LPMC T cell death, 7-AAD flow cytometry (Example 3); format: cell-based, human
Procedure: Objective. […] Model. The human LPMC model as described in Example 2 was used. Cell isolation and culture. Cell isolation and culture procedures were as detailed in Example 2. Treatment with Niclosamide. […] […] […] After treatment cells were exposed to 1 μM 7AAD then incubated a further 60 minutes at 37° C. Live cells and dead cells were enumerated by flow cytometer using a FACS Verse cytometer set to excite and measure emitted fluorescence of 7-AAD at appropriate wavelengths. Detecting viable and dead cells. 7-AAD is excluded from live cells but free to enter dead cells where it undergoes a spectral shift after interacting with cellular DNA. […] Use of this reagent allows viable cells and dead cells to be simultaneously enumerated. In order to specifically distinguish T cells from other cells in LPMCs, anti-CD3 monoclonal antibody labeled with FITC (excitation at 494 nm with emission detected at 521 nm) will be used. This antibody specifically binds human CD3 antigen that is selectively expressed on T cells. Cell viability and death was determined specifically in T cells by measuring 7-AAD fluorescence in cells labeled by anti-CD3 FITC. Calculation of T cell death. The fluorescence intensity of 7-AAD detected at 647 nm was measured specifically T the cell population that was first defined as described in Example 2 by FITC-anti-CD3 antibody fluorescence. […] For statistical comparisons, 95% confidence intervals were computed and graphed with the mean values.

Niclosamide Plasma Concentrations, Mean ([1]; 1 h): 3.9275 ng/mL | concentration at 2 h ([1]; Mean, 2 h): 19.7 ng/mL | concentration at 4 h ([1]; Mean, 4 h): 12 ng/mL | concentration at 8 h ([1]; Mean, 8 h): 4.68 ng/mL | concentration at 24 h ([1]; Mean, 24 h): 1.07 ng/mL | concentration at 2 h ([1]; Subject 666, 2 h): 5.19 ng/mL | concentration at 8 h ([1]; Subject 666, 8 h): 4.73 ng/mL | concentration at 2 h ([1]; Subject 667, 2 h): 3.26 ng/mL | concentration at 8 h ([1]; Subject 667, 8 h): 4.63 ng/mL | concentration at 24 h ([1]; Subject 667, 24 h): 1.07 ng/mL | concentration at 2 h ([1]; Subject 668, 2 h): 50.7 ng/mL | concentration at 4 h ([1]; Subject 668, 4 h): 2.21 ng/mL | concentration in the colon ([3]; single rectal dose 1 mg/kg (below maximal efficacy)): < 5 µM | colon peak concentration ([3]; single rectal dose 3 mg/kg (therapeutic dosage)): > 5 µM
SMILES: O=C(Nc1ccc([N+](=O)[O-])cc1Cl)c1cc(Cl)ccc1O [Niclosamide, 5-chloro-N-(2-chloro-4-nitrophenyl)-2-hydroxybenzamide]
body weight (TNBS-induced colitis; rectal 30 mg/kg on days 1 and 2, TNBS-induced colitis): recovery of body weight | colitis score (H&E analysis of colon biopsies) (TNBS-induced colitis; rectal 30 mg/kg on days 1 and 2, compared to vehicle control or TNBS only): significantly lower | cell death in lamina propria T cell (CD3+) [2]: induces cell death | LPMC T cell death (LPMC T cells; 1-500 μM, 24 hours, 7-AAD in CD3+ cells): dose-related increase | concentrations that fail to induce T cell death (LPMC T cells; LPMC T cells): below 5 μM | concentrations of niclosamide that significantly increase T cell death (p<0.05) (LPMC T cells; relative to negative controls with vehicle alone): ≥ 5 µM
